Earlier results, collected in article PMC5560747, “Computational-experimental approach to drug-target interaction mapping: A case study on kinase inhibitors” (PLoS Computational Biology, 2017).

What was measured:
Parameters in all cases: method as in Gao et al. [42]
Conditions in all cases: ref Gao et al. [42], cited from earlier work
PHKG2 = test system: PHKG2
TYRO3 = test system: TYRO3
MAPKAPK3 = test system: MAPKAPK3
CSNK1G3 = test system: CSNK1G3
SRPK1 = test system: SRPK1
PKCg = test system: PKCg
CAMK1 = test system: CAMK1
RSK2 = test system: RSK2
IKKb = test system: IKKb
RPS6KA5 = test system: RPS6KA5
PIM2 = test system: PIM2
FRK = target: T1, FRK (Homo sapiens, UniProt P42685)
T1 construct: purchased SignalChem F14-11G-10
T1 sequence (P42685 whole entry): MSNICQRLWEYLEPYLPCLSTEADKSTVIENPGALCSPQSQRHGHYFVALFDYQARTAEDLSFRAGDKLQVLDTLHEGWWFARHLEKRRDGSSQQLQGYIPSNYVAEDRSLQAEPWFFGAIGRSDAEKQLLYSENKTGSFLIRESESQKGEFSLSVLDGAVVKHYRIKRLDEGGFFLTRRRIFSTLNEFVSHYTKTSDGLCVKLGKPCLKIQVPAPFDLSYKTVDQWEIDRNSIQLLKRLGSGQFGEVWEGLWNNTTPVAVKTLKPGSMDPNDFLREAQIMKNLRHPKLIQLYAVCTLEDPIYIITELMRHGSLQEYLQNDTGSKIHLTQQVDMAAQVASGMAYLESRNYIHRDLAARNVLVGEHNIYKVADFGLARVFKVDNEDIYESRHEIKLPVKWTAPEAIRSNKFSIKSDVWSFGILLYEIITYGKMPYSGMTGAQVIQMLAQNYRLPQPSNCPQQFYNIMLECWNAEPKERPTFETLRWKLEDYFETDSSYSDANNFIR

CSNK1G1 = test system: CSNK1G1
CAMK2B = test system: CAMK2B
AKT2 = test system: AKT2
PAK4 = test system: PAK4
FER = test system: FER
PKN2 = test system: PKN2
FES = test system: FES
MINK1 = test system: MINK1
DAPK3 = test system: DAPK3
Aurora A = target: T2, Aurora A (Homo sapiens, UniProt O14965)
T2 construct: purchased SignalChem A28-18G-10
T2 sequence (O14965 1-403): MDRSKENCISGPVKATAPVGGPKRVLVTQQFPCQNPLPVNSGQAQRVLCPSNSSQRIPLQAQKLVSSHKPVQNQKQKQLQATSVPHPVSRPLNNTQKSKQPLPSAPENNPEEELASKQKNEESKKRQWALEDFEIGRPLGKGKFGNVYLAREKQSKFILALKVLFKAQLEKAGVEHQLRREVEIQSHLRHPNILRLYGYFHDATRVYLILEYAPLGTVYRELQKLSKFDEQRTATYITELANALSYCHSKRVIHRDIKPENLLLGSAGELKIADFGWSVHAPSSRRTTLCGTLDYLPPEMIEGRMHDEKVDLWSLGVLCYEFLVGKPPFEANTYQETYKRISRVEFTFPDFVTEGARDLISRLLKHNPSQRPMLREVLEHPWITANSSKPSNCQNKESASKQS

CAMK2g = test system: CAMK2g

Structure (SMILES): COc1cc2nccc(Oc3ccc(NC(=O)Nc4cc(C)on4)c(Cl)c3)c2cc1OC [TIVOZANIB, Tivozanib]
- Gao et al. % of activity remaining at 1 µM (PHKG2; 1 µM): 95%
- Gao et al. % of activity remaining at 10 µM (PHKG2; 10 µM): 66%
- Gao et al. % of activity remaining at 1 µM (TYRO3; 1 µM): 10%
- Gao et al. % of activity remaining at 10 µM (TYRO3; 10 µM): 8%
- Gao et al. % of activity remaining at 1 µM (MAPKAPK3; 1 µM): 116%
- Gao et al. % of activity remaining at 10 µM (MAPKAPK3; 10 µM): 67%
- Gao et al. % of activity remaining at 1 µM (CSNK1G3; 1 µM): 104%
- Gao et al. % of activity remaining at 10 µM (CSNK1G3; 10 µM): 93%
- Gao et al. % of activity remaining at 1 µM (SRPK1; 1 µM): 98%
- Gao et al. % of activity remaining at 10 µM (SRPK1; 10 µM): 90%
- Gao et al. % of activity remaining at 1 µM (PKCg; 1 µM): 109%
- Gao et al. % of activity remaining at 10 µM (PKCg; 10 µM): 110%
- Gao et al. % of activity remaining at 1 µM (CAMK1; 1 µM): 105%
- Gao et al. % of activity remaining at 10 µM (CAMK1; 10 µM): 41%
- Gao et al. % of activity remaining at 1 µM (RSK2; 1 µM): 60%
- Gao et al. % of activity remaining at 10 µM (RSK2; 10 µM): 35%
- Gao et al. % of activity remaining at 1 µM (IKKb; 1 µM): 104%
- Gao et al. % of activity remaining at 10 µM (IKKb; 10 µM): 102%
- Gao et al. % of activity remaining at 1 µM (RPS6KA5; 1 µM): 107%
- Gao et al. % of activity remaining at 10 µM (RPS6KA5; 10 µM): 80%
- Gao et al. % of activity remaining at 1 µM (PIM2; 1 µM): 114%
- Gao et al. % of activity remaining at 10 µM (PIM2; 10 µM): 103%
- Gao et al. % of activity remaining at 1 µM (FRK; 1 µM): 2%
- Gao et al. % of activity remaining at 10 µM (FRK; 10 µM): -3%
- Gao et al. % of activity remaining at 1 µM (CSNK1G1; 1 µM): 89%
- Gao et al. % of activity remaining at 10 µM (CSNK1G1; 10 µM): 57%
- Gao et al. % of activity remaining at 1 µM (CAMK2B; 1 µM): 97%
- Gao et al. % of activity remaining at 10 µM (CAMK2B; 10 µM): 69%
- Gao et al. % of activity remaining at 1 µM (AKT2; 1 µM): 105%
- Gao et al. % of activity remaining at 10 µM (AKT2; 10 µM): 89%
- Gao et al. % of activity remaining at 1 µM (PAK4; 1 µM): 99%
- Gao et al. % of activity remaining at 10 µM (PAK4; 10 µM): 92%
- Gao et al. % of activity remaining at 1 µM (FER; 1 µM): 87%
- Gao et al. % of activity remaining at 10 µM (FER; 10 µM): 16%
- Gao et al. % of activity remaining at 1 µM (PKN2; 1 µM): 97%
- Gao et al. % of activity remaining at 10 µM (PKN2; 10 µM): 108%
- Gao et al. % of activity remaining at 1 µM (FES; 1 µM): 78%
- Gao et al. % of activity remaining at 10 µM (FES; 10 µM): 46%
- Gao et al. % of activity remaining at 1 µM (MINK1; 1 µM): 71%
- Gao et al. % of activity remaining at 10 µM (MINK1; 10 µM): 21%
- Gao et al. % of activity remaining at 1 µM (DAPK3; 1 µM): 82%
- Gao et al. % of activity remaining at 10 µM (DAPK3; 10 µM): 90%
- Gao et al. % of activity remaining at 1 µM (Aurora A; 1 µM): 7%
- Gao et al. % of activity remaining at 10 µM (Aurora A; 10 µM): 7%
- Gao et al. % of activity remaining at 1 µM (CAMK2g; 1 µM): 108%
- Gao et al. % of activity remaining at 10 µM (CAMK2g; 10 µM): 70%
